Assay: xn = mol fraction of the nth substance listed
Conditions: 101 kPa, Liquid

CC(O)CCO (stereo not drawn) [1,3-butanediol] + NC=O
Conditions | speed of sound [m/s] | viscosity [mPa·s]
293.15 K, x2 = 0.1061 | 1539 | 99.92
293.15 K, x2 = 0.2004 | 1536.3 | 78.22
293.15 K, x2 = 0.3068 | 1537.2 | 59.74
293.15 K, x2 = 0.4026 | 1538.5 | 46.12
293.15 K, x2 = 0.5033 | 1543.7 | 34.62
293.15 K, x2 = 0.6046 | 1550.4 | 25.02
293.15 K, x2 = 0.7013 | 1561.2 | 17.54
293.15 K, x2 = 0.8073 | 1577.3 | 10.47
293.15 K, x2 = 0.9058 | 1596.6 | 6.546
298.15 K, x2 = 0.1061 | 1521.7 | 74.72
298.15 K, x2 = 0.2004 | 1518.2 | 57.5
298.15 K, x2 = 0.3068 | 1518.3 | 43.1
298.15 K, x2 = 0.4026 | 1519.5 | 32.2
298.15 K, x2 = 0.5033 | 1524.6 | 23.74
298.15 K, x2 = 0.6046 | 1531.3 | 17
298.15 K, x2 = 0.7013 | 1542.5 | 12
298.15 K, x2 = 0.8073 | 1559.5 | 7.526
298.15 K, x2 = 0.9058 | 1580.2 | 5.001
303.15 K, x2 = 0.1061 | 1503.9 | 53.07
303.15 K, x2 = 0.2004 | 1499.8 | 40.31
303.15 K, x2 = 0.3068 | 1499.9 | 28.9
303.15 K, x2 = 0.4026 | 1501.1 | 21.09
303.15 K, x2 = 0.5033 | 1506.5 | 15.04
303.15 K, x2 = 0.6046 | 1513.8 | 10.33
303.15 K, x2 = 0.7013 | 1525.7 | 7.023
303.15 K, x2 = 0.8073 | 1543.8 | 4.543
303.15 K, x2 = 0.9058 | 1566.3 | 3.526
308.15 K, x2 = 0.1061 | 1488.7 | 40.36
308.15 K, x2 = 0.2004 | 1484.2 | 30.96
308.15 K, x2 = 0.3068 | 1483.6 | 21.98
308.15 K, x2 = 0.4026 | 1484.8 | 15.66
308.15 K, x2 = 0.5033 | 1490.1 | 11.25
308.15 K, x2 = 0.6046 | 1497.6 | 7.455
308.15 K, x2 = 0.7013 | 1509.9 | 5.329
308.15 K, x2 = 0.8073 | 1528.7 | 3.578
308.15 K, x2 = 0.9058 | 1552.5 | 2.702
313.15 K, x2 = 0.1061 | 1475.5 | 31.06
313.15 K, x2 = 0.2004 | 1470.2 | 24.23
313.15 K, x2 = 0.3068 | 1468.8 | 17.48
313.15 K, x2 = 0.4026 | 1469.6 | 12.14
313.15 K, x2 = 0.5033 | 1474.7 | 8.414
313.15 K, x2 = 0.6046 | 1482.1 | 6.181
313.15 K, x2 = 0.7013 | 1494.6 | 4.545
313.15 K, x2 = 0.8073 | 1513.9 | 3.229
313.15 K, x2 = 0.9058 | 1538.9 | 2.626
318.15 K, x2 = 0.1061 | 1463.3 | 24.04
318.15 K, x2 = 0.2004 | 1457 | 18.62
318.15 K, x2 = 0.3068 | 1454.8 | 13.82
318.15 K, x2 = 0.4026 | 1455.1 | 9.999
318.15 K, x2 = 0.5033 | 1459.9 | 6.803
318.15 K, x2 = 0.6046 | 1467.1 | 4.697
318.15 K, x2 = 0.7013 | 1479.7 | 3.299
318.15 K, x2 = 0.8073 | 1499.4 | 2.478
318.15 K, x2 = 0.9058 | 1525.5 | 2.257

Source: the NIST ThermoML archive (doi:10.1016/j.fluid.2007.12.007)
